Results on one compound are retold here after patent publication US20250257099A1 (priority 2022, published 2025).

Where only a bound is given, the exact number is not on record here.

One data set deals with SARS-CoV-2 S protein (Severe acute respiratory syndrome coronavirus 2, UniProt P0DTC2). Briefly: cell-based. Conditions: HEK-293T, read-out: IC90, inhibition of S-mediated fusion.
For another data set, the system named is SARS-CoV-2. Conditions: 72 h.

As to `CC[C@H](C)[C@H](NC(=O)[C@H](C)NC(=O)[C@H](CCC(=O)O)NC(=O)[C@H](CCC(=O)O)NC(=O)[C@H](CC(C)C)NC(=O)[C@H](CCCCN)NC(=O)[C@H](CCCCN)NC(=O)[C@H](CCSC)NC(=O)[C@H](CCC(=O)O)NC(=O)[C@H](Cc1ccc(O)cc1)NC(=O)[C@H](CCC(=O)O)NC(=O)[C@H](CC(C)C)NC(=O)[C@H](CC(=O)O)NC(=O)[C@H](CC(C)C)NC(=O)[C@H](Cc1ccccc1)NC(=O)[C@@H](NC(=O)[C@@H](NC(=O)[C@H](CC(N)=O)NC(=O)[C@@H](NC(=O)[C@H](CCC(N)=O)NC(=O)[C@H](CC(=O)O)NC(=O)[C@H](CC(C)C)NC(=O)[C@H](CO)NC(C)=O)[C@@H](C)CC)C(C)C)[C@@H](C)O)C(=O)N[C@@H](CCCCN)C(=O)N[C@@H](CCCCN)C(=O)N[C@@H](CC(C)C)C(=O)N[C@@H](CCC(=O)O)C(=O)N[C@@H](CCC(=O)O)C(=O)N[C@@H](CO)C(=O)N[C@@H](Cc1ccc(O)cc1)C(=O)N[C@H](C(=O)N[C@@H](CC(=O)O)C(=O)N[C@@H](CC(C)C)C(=O)N[C@@H](CCCCN)C(=O)N[C@@H](CCC(=O)O)C(=O)N[C@@H](CC(C)C)C(=O)NCC(=O)N[C@@H](CO)C(=O)NCC(=O)N[C@@H](CO)C(=O)NCC(=O)N[C@@H](CSCC(=O)NCCOCCOCCOCCOCCC(=O)O[C@H]1CC[C@@]2(C)C(=CC[C@H]3[C@@H]4CC[C@H]([C@H](C)CCCC(C)C)[C@@]4(C)CC[C@@H]32)C1)C(N)=O)[C@@H](C)CC` [EK1 lipopeptide], on SARS-CoV-2 S protein, the IC90 was more than 900 nM. In the data set with SARS-CoV-2, the concentration for half-maximal inhibition (IC50) was approximately 80 nM. For the same compound, in the data set with Vero E6 cells, the “toxicity (MTT assay)” value is recorded as less than 20%.

By IC90 is commonly meant the concentration needed for an effect of 90%. A word on the IC50: it is the concentration that inhibits the measured activity by half. Read a high IC50 as a need for much substance.
